We go through four compounds from patent publication US20100130439A1, “GENOMIC MUTATION INHIBITORS THAT INHIBIT Y FAMILY DNA POLYMERASES” (priority 2007, published 2010).

Structures are written as SMILES.

In experiment [1] the test system is wild-type and the isolated mutant cells. The experiment in a line: MIC of AZT against wild-type and isolated mutant cells. The experiment is classed as cell-based, E. coli. On the procedure:
(§1) Characterization of mutants. The MICs were determined of over one hundred isolated antibiotic-resistant colonies. All of the ciprofloxacin-resistant mutants had MICs of 480 ng/mL (FIG. 2B). The ciprofloxacin resistance mutants contained a CG to TA transition translating into a Ser 83→Leu mutation in DNA gyrase. This mutation is known to provide the greatest ciprofloxacin resistance obtainable in a single step (Drlica K, Zhao X (1997) Microbiol Mol Biol Rev 61: 377-392).

For the next experiment, the system named is CC 102. The experiment is described as follows: MIC of AZT against CC102. The experiment is classed as cell-based, E. coli. To be noted: Escherichia coli, read-out: AZT MIC. An excerpt: One strain, CC102, required a GC to AT transition.
Experiment [2] concerns most gram-negative bacteria. The settings on record: Elwell et al. 1987; cited from earlier work.
Experiment [3] concerns ciprofloxacin-resistant mutants. The experiment is described as follows: MIC of isolated ciprofloxacin-resistant colonies. The experiment is classed as cell-based, E. coli. To be noted: Escherichia coli. On the procedure: as §1
The subject of experiment [4] is wild-type MG1655 K12 E. coli. The experiment is classed as cell-based. The settings on record: d4T 6 μg/mL.
For experiment [5], the system named is triclosan-resistant mutants. The experiment is described as follows: MIC of isolated triclosan-resistant colonies. The experiment is classed as cell-based, E. coli. To be noted: Escherichia coli. Here is the method:
as §1
The vast majority of isolated triclosan-resistant mutants (˜85%) had MICs of 16 μg/mL. These colonies had acquired a GC to TA transversion resulting in a Gly 93→Val mutation in FabI, the known protein target of triclosan (FIG. 2B). This mutation is known to produce the greatest triclosan resistance possible via a single step (McMurry L, Oethinger M, Levy S (1998) Nature 394: 531-532). […] It is, therefore, reasonable that the frequency of UV-induced triclosan-resistant mutants is considerably lower (˜8-fold) than the frequency of UV-induced ciprofloxacin-resistant mutants. The remaining triclosan-resistant mutants (˜15%) had MICs between 2-4 μg/mL. These included three different mutations of Phe 203 in FabI: a TA to CG transition giving serine, a TA to GC transversion giving valine, and a TA to GC transversion giving cystine (FIG. 2B). […]

A word on the MIC: it is the smallest concentration in the dilution series that meets the test's criterion for growth inhibition. Take `Cc1cn([C@H]2C[C@H](N=[N+]=[N-])[C@@H](CO)O2)c(=O)[nH]c1=O` [AZT, 3′-azido-2′-deoxythymidine]: the MIC in experiment [1] (both the wild-type and the isolated ciprofloxacin-/triclosan-resistant mutant cells) was found to be 0.01 µg/mL; in the experiment with CC 102, 0.02 µg/mL. The “sensitivity to AZT” value in experiment [1] (several rifampicin-resistant mutants) is “varying sensitivities”. For the same compound, the antibacterial activity entry in experiment [2] is listed as “antibacterial activity”.

`O=C(O)c1cn(C2CC2)c2cc(N3CCNCC3)c(F)cc2c1=O` [ciprofloxacin]: the MIC in experiment [3] is 0.48 µg/mL.

Regarding `Cc1cn([C@H]2C=C[C@@H](CO)O2)c(=O)[nH]c1=O` [d4T, 2′,3′-didehydro-3′-deoxythymidine], the “UV-induced generation of mutations that confer resistance to ciprofloxacin” value in experiment [4] was “inhibits”. Also, the antibacterial activity entry in experiment [2] was “antibacterial activity”.

For `Oc1cc(Cl)ccc1Oc1ccc(Cl)cc1Cl` [triclosan], the minimum inhibitory concentration (MIC) in experiment [5] (remaining (~15%) triclosan-resistant mutants (FabI Phe 203 mutations)) was 2 to 4 µg/mL; in experiment [5] (vast majority (~85%) of triclosan-resistant mutants (FabI Gly 93→Val)), 16 µg/mL.
